According to US20220085295A1, “Novel Compound and Organic Light Emitting Device Comprising the Same” (LG Chem, Ltd., priority 2019, published 2022):

Test: Solubility experiment in toluene
Assay type: physicochemical
Details: in toluene at room temperature/normal pressure

Row | Structure (SMILES) | Solubility (wt %)
1 | CC(C)(C)c1ccc(N(c2ccc(C(C)(C)C)cc2)c2ccc(C3(c4ccc(C(C)(C)C)cc4)c4cc(N(c5ccccc5)c5ccc(C(C)(C)C)cc5)ccc4-c4c3cc(N(c3ccccc3)c3ccc(C(C)(C)C)cc3)c3oc5ccccc5c43)cc2)cc1 (stereo not shown) [Compound 1] | 4.5
2 | CC(C)(C)c1ccc(N(c2ccc(C(C)(C)C)cc2)c2ccc(C3(c4ccc(C(C)(C)C)cc4)c4cc(N(c5ccc(C(C)(C)C)cc5)c5cccc6c5oc5ccccc56)ccc4-c4c3cc(N(c3ccc(C(C)(C)C)cc3)c3cccc5c3oc3ccccc35)c3oc5ccccc5c43)cc2)cc1 (stereo not shown) [Compound 2] | 4.7
3 | CC(C)(C)c1ccc(N(c2ccc(C(C)(C)C)cc2)c2ccc(C3(c4ccc(C(C)(C)C)cc4)c4cc(N(c5ccccc5)c5ccc(C(C)(C)C)cc5)ccc4-c4c3cc(N(c3ccccc3)c3ccc(C(C)(C)C)cc3)c3c4-c4ccccc4C3(C)C)cc2)cc1 (stereo not shown) [Compound 3] | 5.8
4 | CC(C)(C)c1ccc(N(c2ccc(C(C)(C)C)cc2)c2ccc(C3(c4ccc(C(C)(C)C)cc4)c4cc(N(c5ccc(C(C)(C)C)cc5)c5cccc6c5oc5ccccc56)ccc4-c4c3cc(N(c3ccc(C(C)(C)C)cc3)c3cccc5c3oc3ccccc35)c3c4-c4ccccc4C3(C)C)cc2)cc1 (stereo not shown) [Compound 4] | 5.5
5 | CC(C)(C)c1ccc(N(c2ccc(C(C)(C)C)cc2)c2ccc(C3(c4ccc(C(C)(C)C)cc4)c4cc(N(c5ccccc5)c5ccc(C(C)(C)C)cc5)c5c(oc6ccccc65)c4-c4c3cc(N(c3ccccc3)c3ccc(C(C)(C)C)cc3)c3oc5ccccc5c43)cc2)cc1 (stereo not shown) [Compound 5] | 3.9

Further lines, results first:

Row | Solubility (wt %) | Structure (SMILES)
6 | 4.1 | CC(C)(C)c1ccc(N(c2ccc(C(C)(C)C)cc2)c2ccc(C3(c4ccc(C(C)(C)C)cc4)c4cc(N(c5ccc(C(C)(C)C)cc5)c5cccc6c5oc5ccccc56)c5c(oc6ccccc65)c4-c4c3cc(N(c3ccc(C(C)(C)C)cc3)c3cccc5c3oc3ccccc35)c3oc5ccccc5c43)cc2)cc1 (stereo not shown) [Compound 6]
7 | 3.8 | CC(C)(C)c1ccc(Oc2ccc(C3(c4ccc(C(C)(C)C)cc4)c4cc(N(c5ccccc5)c5ccc(C(C)(C)C)cc5)c5c(oc6ccccc65)c4-c4c3cc(N(c3ccccc3)c3ccc(C(C)(C)C)cc3)c3oc5ccccc5c43)cc2)cc1 (stereo not shown) [Compound 7]
8 | 3.9 | CC(C)(C)c1ccc(Sc2ccc(C3(c4ccc(C(C)(C)C)cc4)c4cc(N(c5ccccc5)c5ccc(C(C)(C)C)cc5)c5c(oc6ccccc65)c4-c4c3cc(N(c3ccccc3)c3ccc(C(C)(C)C)cc3)c3oc5ccccc5c43)cc2)cc1 (stereo not shown) [Compound 8]
9 | 3.4 | Cc1ccc(C)c(C2(c3ccc([Si](C)(C)C)cc3)c3cc(N(c4ccccc4)c4ccc(C(C)(C)C)cc4)c4c(oc5ccccc54)c3-c3c2cc(N(c2ccccc2)c2ccc(C(C)(C)C)cc2)c2oc4ccccc4c32)c1 (stereo not shown) [Compound 9]
10 | 2.0 | CC(C)(C)c1ccc(N(c2ccccc2)c2ccc3c(c2)C2(c4ccccc4-c4ccccc42)c2cc(N(c4ccccc4)c4ccc(C(C)(C)C)cc4)c4c(oc5ccccc54)c2-3)cc1 [Compound BD, reference compound]
